Structure (SMILES) | melting point [°C]
COc1ccc(-c2cc(F)c3c(c2)CC(CN)O3)cc1 (stereo not drawn) | > 250
COc1cc(C=O)cc2c1OCCC2 | 81
CN(C)S(=O)(=O)c1cc(C(=O)Cl)ccc1Cl | 103 to 105
CCCNC(=O)C1CCCN1C(=O)OCc1ccccc1 (stereo not drawn) | 74 to 75
CC(C)(C)OC(=O)/C=C/c1ccc(C(=C2CCCCCCC2)c2ccc(O)cc2)cc1 | 171 to 172
CC(C)(Cl)CC(=O)c1cc(C(C)(C)C)c(O)c(C(C)(C)C)c1 | 101 to 102
CC(=O)OC1=CC(C)C2(C)C(=C1)CCC1C3CCC(=O)C3(C)CCC12 (stereo not drawn) | 104 to 107
Cc1nn(C)c2ccc(C(=O)O)c(C3=NC(C)(C(C)C)C(=O)N3)c12 (stereo not drawn) | 156 to 166
Oc1ccc(-c2nc3ccc(O)cc3s2)cc1 | 284 to 286
CCCCOc1cc2cc(CO)c(CO)c(-c3ccnc(NN)c3)c2cc1OC | 93 to 97
CC(=O)COc1cc2c3ccccc3n(Cc3ccccc3)c2cn1 | 141 to 142
COc1cccc2c1OC(COS(=O)(=O)c1ccc(C)cc1)CC2 (stereo not drawn) | 115 to 117
CCCc1c(S)ccc2c(=O)c(C(=O)OC)coc12 | 98 to 99
CCCNc1ccc(C#CCCN2CC=C(c3ccccc3)CC2)nc1 | 138 to 139
CC(=O)Oc1ccc(CCc2ccc(OC(C)=O)cc2)cc1 | 115 to 116
CC1(C)C(=O)Nc2cc3[nH]c(C(F)(F)F)nc3cc21 | 175 to 177
Nc1nc2c(s1)-c1c(cnn1-c1ccccc1)CC2 | 307 to 308
Cc1cc(Oc2ccc(Cl)c(C(F)(F)F)c2)ncc1[N+](=O)[O-] | 75 to 80
Cc1cc2c(s1)Nc1ccccc1N=C2N1CCN[C@@H](COc2ccccc2)C1 | 64 to 81
OCC1OC(n2c(S)nc3c(NCc4ccccc4)ncnc32)C(O)C1O (stereo not drawn) | 145 to 148

Structure (SMILES) | melting point [°C]
O=C(Nc1cccc(-c2ccnc3c(C(=O)c4cccs4)cnn23)c1)c1cnccn1 | 222 to 224
CC(C)NC1=NS(=O)(=O)c2cc(Cl)cc(Cl)c2N1 | > 230
COC(=O)C#CC(=O)c1cccc(Cl)c1 | 73 to 75
CC1CC(=O)NN=C1c1ccc2c(c1)NC(=O)C(C)O2 (stereo not drawn) | 271 to 272
Cc1cccc(-c2nc3ccccn3c2-c2ccnc(-c3ccc(C(=O)NC4CCOCC4)cc3)c2)n1 | 128
COc1ccc2cc(-c3cnc(-c4cn(Cc5ccccc5)c5ccccc45)o3)ccc2c1 | 198 to 199
CN(C)c1nnc(-c2ccc(S(C)=O)cc2)c(-c2ccc(S(C)=O)cc2)n1 (stereo not drawn) | 199 to 204
O=C(O)c1cn(C2CC2)c2c(F)c(F)c(Cl)cc2c1=O | 200 to 204
O=c1[nH]c(NCCCN(Cc2ccccc2)c2ccccn2)ncc1Cc1ccncc1 | 87 to 89
COc1cc(C(=O)CCc2ccccc2)c2c(c1OC)C(=O)CC2 | 144 to 146
Cc1cc(C)nc(NC(=O)NS(=O)(=O)Nc2nc(C)cc(C)n2)n1 | 198
Cc1nc(C(C)(O)c2nc(C)c(C)s2)sc1C | 143 to 144
Nc1nnc2c3c(c(N4CCCCC4)nn12)CCCC3 | 230 to 232
Cc1cccc(NC(=O)OCc2cccc(O)c2)c1CNc1cccn2c(C)c(C)nc12 | 190 to 193
O=C1OC(=O)c2c3ccccc3cc3cccc1c23 | 289 to 290
CCOC(=O)Cc1c(C)[nH]c(C(=O)c2ccccc2)c1C | 126 to 129
NNC(=O)CSc1nc(Cl)cc(NCc2ccc(Cl)cc2)n1 | 178 to 182
COCOc1ccc(C(=O)Cn2c(-c3nonc3N)nc3ccccc32)cc1OC | 190
CN1CCN(CCCNC(=S)NC2CCCCC2)CC1 | 109 to 111
O=C(COc1cc(-c2ccccc2)on1)NCCO[N+](=O)[O-] | 113 to 114

Results, then the compound that gave them:

melting point [°C] | Structure (SMILES)
190 to 193 | Cc1cc(Cn2c(-c3ccccc3)nc(Cl)c2CC(=O)O)ccc1O
225 | O=CN(O)C(CS(=O)(=O)c1ccc(-c2ccc(C(F)(F)F)cc2)cc1)c1ccc(O)cc1 (stereo not drawn)
85 to 88 | CCOC(=O)CC(=O)c1cc(F)c(F)c(Br)c1F
145 | CC(O)CN(CC(=O)O)CC(C)O (stereo not drawn)
86.5 to 88 | CCOC(=O)COc1ccc(S(=O)(=O)CCNS(=O)(=O)c2ccccc2)cc1
294 to 295 | Nc1ccc(C(=O)c2ccncc2)cc1[N+](=O)[O-]
151 | O=C(Nc1ccc(N2CCOCC2=O)cc1)[C@H]1C[C@@H](O)CN1C(=O)/C=C/c1ccc(Cl)s1
> 260 | Oc1cc2[nH]c3c(O)c(O)cc(Br)c3c2cc1O
205 to 206 | Cn1ncc(/C=C/C(=O)Nc2ccc(Cc3nc4c(s3)CCCC4)cc2)c1-c1ccc(F)cc1
109 to 111 | NCC1(Cc2noc(=O)[nH]2)CCCCC1
52 to 54 | CN(CCC(O)c1ccc(Cl)cc1)Cc1ccccc1F (stereo not drawn)
241 to 245 | CCCc1nc(CC)c(C=O)n1Cc1ccc(-c2ccccc2-c2c(O)c(=O)c2=O)cc1
229 to 231 | CC(=O)Nc1cnc(C=NNC(N)=S)cc1C
190 to 192 | CCOC(=O)c1cnc2c(c(C)nc3ccnn32)c1O
210 to 212 | O=C1Cc2ccccc2C(c2ccccc2C(F)(F)F)N1 (stereo not drawn)
167 to 170 | CCc1cc(O)cc(C)c1N
108 to 109 | Cc1c(C=CC=O)c2c(c(C)c1OCc1ccccc1)CC(C)(C)O2

melting point [°C] | Structure (SMILES)
205 to 207 | O=C(O)c1oc(-c2ccccc2Cl)cc(=O)c1Br
132 to 134 | COc1ccc(C)cc1NC(=O)Nc1ccc(N2CCN(C(=O)Nc3cc(OCCO)ccc3Cl)CC2)nc1
77 to 79 | O=C1C2=C(CCCC2)C(=O)N1c1ccc(Cl)c(CO)c1
108 | O=C(Cc1ccccc1)c1ccc(OCC(F)(F)F)cc1
126 to 127 | Cn1c(C(F)(F)F)cc(=O)n(-c2cc(OCC=C(Cl)Cl)c(Cl)cc2F)c1=O
152 to 153 | Cc1ccc(S(=O)(=O)Cl)c2c1CCN(C(=O)C(F)(F)F)C2
> 350 | Nc1nc(O)c2cc(CN(CCF)c3ccc(C(=O)N[C@@H](CCC(=O)O)C(=O)O)cc3)ccc2n1
263 to 266 | Cc1cccc(NC(=O)NC2CC(c3ccccc3)c3ccccc3N(CC(=O)NC(C)(C)C)C2=O)c1 (stereo not drawn)
206 to 208 | COc1ccc(C(=O)C=Cc2cc(O)c(O)c([N+](=O)[O-])c2)cc1OC
116 to 118 | Cn1c(=O)nc(Sc2ccccc2)sc1=S
213 | CC1=CC(C=O)(NC(c2ccccc2)(c2ccccc2)c2ccccc2)NC=C1 (stereo not drawn)
181 to 182 | Oc1ccc(-c2c3ccccc3c(Br)c3sc4ccccc4c23)cc1O
226 to 229 | O=C(NS(=O)(=O)c1ccc(Cl)cc1)C1=NN(c2ccc(Cl)cc2)C(c2ccccc2)C1 (stereo not drawn)
257 to 258 | CC1CCn2c(c(-c3ccccc3)c3cccnc3c2=O)C(=O)N(Cc2cc(C(F)(F)F)cc(C(F)(F)F)c2)C1 (racemic)
212 to 214 | CC(=O)C1=C(Nc2ccc(C3=NNC(=O)CC3)cc2)CC(C)(C)CC1=O
156 to 164 | COC(=O)C1CCCCCCCSC[C@@H](C(=O)OC)NC1=O (stereo partly drawn)
